Measured values as given in paper PMC9977294, “A parasitic fungus employs mutated eIF4A to survive on rocaglate-synthesizing Aglaia plants” (eLife, 2023).
Where “and” joins values, the source holds several entries; their conditions need not be identical. Equal entries are not always repeated. Where two headings read alike, the source gives them in different places.

Legend:
[1] = molecular target: T1, H. sapiens eIF4A1 WT Phe163 (Homo sapiens, UniProt P60842); assay: Fluorescence polarization assay, FAM-labeled [AG]10 RNA and recombinant eIF4A; assay type: binding; details: RocA 50 µM
T1 construct: His tag (N); made in house; host or cells: E. coli BL21 Star (DE3)
T1 sequence (P60842 whole entry): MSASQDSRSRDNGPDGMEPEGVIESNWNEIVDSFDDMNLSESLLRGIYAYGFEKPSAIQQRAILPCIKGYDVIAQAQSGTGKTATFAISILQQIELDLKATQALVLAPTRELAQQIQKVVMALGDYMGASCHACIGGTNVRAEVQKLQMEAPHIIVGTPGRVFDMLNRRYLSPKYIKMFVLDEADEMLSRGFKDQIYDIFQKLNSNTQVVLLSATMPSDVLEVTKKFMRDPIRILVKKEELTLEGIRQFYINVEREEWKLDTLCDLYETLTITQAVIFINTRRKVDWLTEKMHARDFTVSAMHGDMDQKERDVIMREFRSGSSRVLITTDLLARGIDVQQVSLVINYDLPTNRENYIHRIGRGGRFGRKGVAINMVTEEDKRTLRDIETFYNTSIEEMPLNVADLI

[2] = molecular target: T2, O. sinensis eIF4A His154Gly (Ophiocordyceps sinensis, UniProt A0A8H4LTQ8, H154G); assay: as above; assay type: binding; details: for Kd: [AG]10 10 nM, compound 50 µM, read-out: Kd between eIF4A protein and RNA
T2 sequence (A0A8H4LTQ8 1-397 H154G): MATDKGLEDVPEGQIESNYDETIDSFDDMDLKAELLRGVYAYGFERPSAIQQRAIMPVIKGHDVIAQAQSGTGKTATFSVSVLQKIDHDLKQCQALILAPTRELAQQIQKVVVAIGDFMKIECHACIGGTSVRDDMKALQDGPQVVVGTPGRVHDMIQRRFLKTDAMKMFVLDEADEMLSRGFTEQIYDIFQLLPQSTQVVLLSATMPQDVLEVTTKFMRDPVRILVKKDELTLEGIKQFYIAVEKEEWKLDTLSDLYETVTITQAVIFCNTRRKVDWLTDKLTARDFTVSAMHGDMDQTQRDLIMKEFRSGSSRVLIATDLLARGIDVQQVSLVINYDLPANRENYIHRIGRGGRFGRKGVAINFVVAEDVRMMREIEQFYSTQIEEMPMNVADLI

[3] = [AG]10, ADP + Pi, RocA 50 µM, protein 0.01 μM
[4] = [AG]10, ADP + Pi, RocA 50 µM, protein 0.05 μM
[5] = [AG]10, ADP + Pi, RocA 50 µM, protein 0.075 μM
[6] = [AG]10, ADP + Pi, RocA 50 µM, protein 0.1 μM
[7] = [AG]10, ADP + Pi, RocA 50 µM, protein 0.5 μM
[8] = [AG]10, ADP + Pi, RocA 50 µM, protein 0.75 μM
[9] = [AG]10, ADP + Pi, RocA 50 µM, protein 1 μM
[10] = [AG]10, ADP + Pi, RocA 50 µM, protein 5 μM
[11] = [AG]10, ADP + Pi, RocA 50 µM, protein 7.5 μM
[12] = [AG]10, ADP + Pi, RocA 50 µM, protein 10 μM
[13] = [AG]10, ADP + Pi, RocA 50 µM, protein 25 μM
[14] = [AG]10, ADP + Pi, RocA 50 µM, protein 50 μM
[15] = [AG]10 RNA, AMP-PNP, RocA, protein concentration 0.01 μM
[16] = [AG]10 RNA, AMP-PNP, RocA, protein concentration 0.05 μM
[17] = [AG]10 RNA, AMP-PNP, RocA, protein concentration 0.075 μM
[18] = [AG]10 RNA, AMP-PNP, RocA, protein concentration 0.1 μM

COc1ccc([C@@]23Oc4cc(OC)cc(OC)c4[C@]2(O)[C@H](O)[C@H](C(=O)N(C)C)[C@H]3c2ccccc2)cc1 [RocA, rocaglamide A]
fluorescence polarization, Mean ([1]; ADP + Pi, protein 0.01 μM): 0.08197 | fluorescence polarization, Mean ([1]; ADP + Pi, protein 0.05 μM): 0.09836 | fluorescence polarization, Mean ([1]; ADP + Pi, protein 0.075 μM): 0.06831 | fluorescence polarization, Mean ([1]; ADP + Pi, protein 0.1 μM): 0.1776 | fluorescence polarization, Mean ([1]; ADP + Pi, protein 0.5 μM): 0.5956 | fluorescence polarization, Mean ([1]; ADP + Pi, protein 0.75 μM): 0.735 | fluorescence polarization, Mean ([1]; ADP + Pi, protein 1 μM): 0.6831 | fluorescence polarization, Mean ([1]; ADP + Pi, protein 5 μM): 0.9481 | fluorescence polarization, Mean ([1]; ADP + Pi, protein 7.5 μM): 0.8825 | fluorescence polarization, Mean ([1]; ADP + Pi, protein 10 μM): 0.9699 | fluorescence polarization, Mean ([1]; ADP + Pi, protein 25 μM): 1.044 | fluorescence polarization, Mean ([1]; ADP + Pi, protein 50 μM): 1.0929 | fluorescence polarization, Mean ([1]; AMP-PNP, protein 0.01 μM): 0.2213 | fluorescence polarization, Mean ([1]; AMP-PNP, protein 0.05 μM): 0.7268 | fluorescence polarization, Mean ([1]; AMP-PNP, protein 0.075 μM): 0.4973 | fluorescence polarization, Mean ([1]; AMP-PNP, protein 0.1 μM): 0.765 | fluorescence polarization, Mean ([1]; AMP-PNP, protein 0.5 μM): 1.016 | fluorescence polarization, Mean ([1]; AMP-PNP, protein 0.75 μM): 1.0082 | fluorescence polarization, Mean ([1]; AMP-PNP, protein 1 μM): 1.049 | fluorescence polarization, Mean ([1]; AMP-PNP, protein 5 μM): 1.046 | fluorescence polarization, Mean ([1]; AMP-PNP, protein 7.5 μM): 1.123 | fluorescence polarization, Mean ([1]; AMP-PNP, protein 10 μM): 1.156 | fluorescence polarization, Mean ([1]; AMP-PNP, protein 25 μM): 1.142 | fluorescence polarization, Mean ([1]; AMP-PNP, protein 50 μM): 1.15 | Kd ([2]; ADP + Pi (1 mM each)): 850 ± 120 nM | Kd ([2]; AMP-PNP 1 mM): 370 ± 46 nM | fluorescence polarization, Mean [2, 3]: 0.06011 | fluorescence polarization, replicates [2, 3]: -0.02732 | fluorescence polarization, Mean [2, 4]: 0.1202 | fluorescence polarization, replicates [2, 4]: 0.1284 | fluorescence polarization, Mean [2, 5]: 0.1339 | fluorescence polarization, replicates [2, 5]: 0.1284 and 0.1612 and 0.112 | fluorescence polarization, Mean [2, 6]: 0.1639 | fluorescence polarization, replicates [2, 6]: 0.2104 and 0.1284 and 0.153 | fluorescence polarization, Mean [2, 7]: 0.6885 | fluorescence polarization, replicates [2, 7]: 0.6858 and 0.5956 | fluorescence polarization, Mean [2, 8]: 0.6093 | fluorescence polarization, replicates [2, 8]: 0.5874 and 0.6038 | fluorescence polarization, Mean [2, 9]: 0.8743 | fluorescence polarization, replicates [2, 9]: 0.9071 and 0.9481 | fluorescence polarization, Mean [2, 10]: 1.648 | fluorescence polarization, replicates [2, 10]: 1.628 and 1.6612 and 1.653 | fluorescence polarization, Mean [2, 11]: 1.617 | fluorescence polarization, replicates [2, 11]: 1.6776 and 1.53 and 1.645 | fluorescence polarization, Mean [2, 12]: 1.686 | fluorescence polarization, replicates [2, 12]: 1.612 and 1.735 and 1.71 | fluorescence polarization, Mean [2, 13]: 1.735 | fluorescence polarization, replicates [2, 13]: 1.76 and 1.751 and 1.694 | fluorescence polarization, Mean [2, 14]: 1.7459 | fluorescence polarization, replicates [2, 14]: 1.735 and 1.76 and 1.743 | Fluorescence polarization, Replicate 1-3 [2, 15]: 0.04372 and 0.1339 and -0.005464 | fluorescence polarization, Mean [2, 15]: 0.05738 | Fluorescence polarization, Replicate 1-3 [2, 16]: 0.06831 and 0.1421 and -0.03005 | fluorescence polarization, Mean [2, 16]: 0.06011 | Fluorescence polarization, Replicate 1-3 [2, 17]: 0.06831 and 0.1339 and 0.1503 | fluorescence polarization, Mean [2, 17]: 0.1175 | Fluorescence polarization, Replicate 1-3 [2, 18]: 0.1667 and 0.0847 and 0.1995 | fluorescence polarization, Mean [2, 18]: 0.1503 | Fluorescence polarization, Replicate 1-3 ([2]; [AG]10 RNA, AMP-PNP, RocA, protein concentration 0.5 μM): 1.142 and 1.044 and 0.9536 | Fluorescence polarization, Replicate 1-3 ([2]; [AG]10 RNA, AMP-PNP, RocA, protein concentration 0.75 μM): 0.9454 and 1.044 and 0.9126
